{
  "source": "paper PMC4007625",
  "about": "“A phase I study of AST1306, a novel irreversible EGFR and HER2 kinase inhibitor, in patients with advanced solid tumors” (Journal of Hematology & Oncology, 2014)",
  "key": {"[1]": {"test_system": "advanced solid tumors", "assay": "Antitumor activity by RECIST 1.0", "assay_type": "in vivo, human", "procedure": "Antitumor activity was assessed by tumor measurements according to RECIST 1.0 and performed at 8-week intervals. The primary efficacy endpoint was progression free survival (PFS), which was defined as the time from the first administration until disease progression or death. Overall survival (OS) and response rate were also assessed. Clinical benefit rate was measured and defined as the proportion of patients with complete response, partial response and stable disease (SD) ≥ 6 months."}, "[2]": {"test_system": "EGFR T790M mutant", "set-up": "method as in PMID 21789172, PMID 18408761, PMID 15728811, PMID 15737014, PMID 17085664", "details": "cited from earlier work"}, "[3]": {"test_system": "human tumor xenograft models that expressed or overexpressed HER family members", "set-up": "method as in PMID 21789172", "details": "especially HER2 overexpression or EGFR T790M mutant tumors; cited from earlier work"}, "[4]": {"assay": "Phase I dose escalation: safety, tolerability, DLT and MTD (CTC-AE 4.03)", "assay_type": "in vivo", "procedure": "This was the first-in-human phase I dose-escalation study of AST1306 for patients with advanced solid tumors. AST1306 was orally administered without food for one day followed by two days off to evaluate single dose PK profiles. After that, it was continuously administered for 21 days and two days off to assess multiple dose PK profiles and safety. […] Three times daily in three dose levels (800 mg TID, 1000 mg TID and 1200 mg TID) were explored subsequently. Treatment was then repeated at the same dose level in 28-day cycles until unacceptable toxicities, disease progression or the patient’s withdrew from the study. PK extension study was performed to enroll additional patients up to at least eight patients per dose cohort in three dose levels (MTD, one or two doses level lower than the MTD) for further evaluation of PK profiles.\nSafety and tolerability were evaluated and assessed by investigators throughout the study and up to 14 days after the final dose of AST1306 according to Common Terminology Criteria for Adverse Events (CTC-AE) version 4.03. Laboratory evaluations and electrocardiogram were conducted at screening; every week of first and second cycles; every two weeks of third cycle and every four weeks of subsequent cycles. AEs assessment, vital signs, physical examinations and echocardiography were performed.\nA modified Fibonacci 3 plus 3 dose-escalation design was employed. Tolerability was evaluated according to the type and frequency of DLTs observed from single-day-dose administration until day 21 of the first cycle of continuous dosing. DLTs were defined as follows: grade ≥ 3 non-hematologic toxicity (except nausea, vomiting and diarrhea); grade ≥ 3 nausea, vomiting or diarrhea uncontrollable with standard supportive care; grade 4 neutropenia or febrile neutropenia; and grade 4 thrombocytopenia or bleeding requiring a platelet transfusion. If two or more patients experienced DLTs in three to six patients for each cohort, dose escalation was terminated and the dose level below was defined as the MTD.\nDose interruptions were permitted for no more than 14 days for patients experiencing DLTs in the first cycle or intolerable toxicities in the subsequent cycles, with treatment resumed at the next lower dose level upon adequate recovery (grade ≤ 1). More than two dose level reductions were not allowed.\nPatients in the PK extension study and food-effect study were also included to evaluate safety further."}},
  "data": [
    {"smiles": "C=CC(=O)Nc1ccc2ncnc(Nc3ccc(OCc4cccc(F)c4)c(Cl)c3)c2c1", "note": "[AST1306]", "values": [
      {"measurement": "median OS", "setting": "[1]; 12 NSCLC patients", "result": "not yet been reached"},
      {"measurement": "median PFS", "setting": "[1]; 12 NSCLC patients", "result": 3.6, "unit": "months"},
      {"measurement": "median OS", "setting": "[1]; 17 breast cancer patients", "result": "17.7 (95% CI, 16.1–19.3) months"},
      {"measurement": "median PFS", "setting": "[1]; 17 breast cancer patients", "result": "5.5 (95% CI, 3.2–7.9) months"},
      {"measurement": "confirmed PR, % of patients", "setting": "[1]; 55 evaluable patients", "result": 12.7, "unit": "%"},
      {"measurement": "confirmed partial responses, patients", "setting": "[1]; 55 evaluable patients", "result": 7},
      {"measurement": "stable disease ≥ 6 months, patients", "setting": "[1]; 55 evaluable patients", "result": 7},
      {"measurement": "confirmed PR, patients", "setting": "[1]; NSCLC, 12 evaluable", "result": 1},
      {"measurement": "confirmed PR, patients", "setting": "[1]; breast cancer, 17 evaluable, all responders HER2 positive", "result": 5},
      {"measurement": "confirmed PR, patients", "setting": "[1]; gastric cancer", "result": 1},
      {"measurement": "fold more potent than lapatinib", "setting": "[2]; EGFR T790M mutant", "result": "approximately 500 fold"},
      {"measurement": "IC50", "setting": "[2]; preclinical", "result": "12 ± 2", "unit": "nM"},
      {"measurement": "antitumor activity in xenograft models", "setting": "[3]", "result": "showed antitumor activities"},
      {"measurement": "MTD", "setting": "[4]; TID, continuous-dosing schedule, oral", "result": 1000, "unit": "mg"},
      {"measurement": "Anorexia grade 3, treatment-related AE, patients", "setting": "[4]; human, in vivo", "result": 0},
      {"measurement": "Fatigue grade 3, treatment-related AE, % of patients", "setting": "[4]; human, in vivo", "result": 0, "unit": "%"},
      {"measurement": "Fatigue grade 3, treatment-related AE, patients", "setting": "[4]; human, in vivo", "result": 0},
      {"measurement": "Hand-foot syndrome grade 3, treatment-related AE, % of patients", "setting": "[4]; human, in vivo", "result": 0, "unit": "%"},
      {"measurement": "Hand-foot syndrome grade 3, treatment-related AE, patients", "setting": "[4]; human, in vivo", "result": 0},
      {"measurement": "Proteinuria grade 3, treatment-related AE, % of patients", "setting": "[4]; human, in vivo", "result": 0, "unit": "%"},
      {"measurement": "Proteinuria grade 3, treatment-related AE, patients", "setting": "[4]; human, in vivo", "result": 0},
      {"measurement": "Vomiting grade 3, treatment-related AE, % of patients", "setting": "[4]; human, in vivo", "result": 0, "unit": "%"},
      {"measurement": "Vomiting grade 3, treatment-related AE, patients", "setting": "[4]; human, in vivo", "result": 0},
      {"measurement": "discontinuation from treatment due to diarrhea, % of patients", "setting": "[4]; human, in vivo", "result": 7, "unit": "%"},
      {"measurement": "discontinuation from treatment due to diarrhea, patients", "setting": "[4]; human, in vivo", "result": 5},
      {"measurement": "discontinuation from treatment due to hypokalemia, patients", "setting": "[4]; human, in vivo", "result": 1},
      {"measurement": "grade 3 drug-related abdominal pain, % of patients", "setting": "[4]; human, in vivo", "result": 1.4, "unit": "%"},
      {"measurement": "grade 3 drug-related abdominal pain, patients", "setting": "[4]; human, in vivo", "result": 1},
      {"measurement": "grade 3 drug-related anemia, % of patients", "setting": "[4]; human, in vivo", "result": 1.4, "unit": "%"},
      {"measurement": "grade 3 drug-related anemia, patients", "setting": "[4]; human, in vivo", "result": 1},
      {"measurement": "grade 3 drug-related diarrhea, % of patients", "setting": "[4]; human, in vivo", "result": 32.4, "unit": "%"},
      {"measurement": "grade 3 drug-related diarrhea, patients", "setting": "[4]; human, in vivo", "result": 23},
      {"measurement": "grade 3 drug-related elevated ALT or AST, % of patients", "setting": "[4]; human, in vivo", "result": 4.2, "unit": "%"},
      {"measurement": "grade 3 drug-related elevated ALT or AST, patients", "setting": "[4]; human, in vivo", "result": 3},
      {"measurement": "grade 3 drug-related hypokalemia, % of patients", "setting": "[4]; human, in vivo", "result": 1.4, "unit": "%"},
      {"measurement": "grade 3 drug-related hypokalemia, patients", "setting": "[4]; human, in vivo", "result": 1},
      {"measurement": "grade 3 drug-related rash, % of patients", "setting": "[4]; human, in vivo", "result": 1.4, "unit": "%"},
      {"measurement": "grade 3 drug-related rash, patients", "setting": "[4]; human, in vivo", "result": 1},
      {"measurement": "grade 3 study drug-related AEs, % of patients", "setting": "[4]; human, in vivo", "result": 39.4, "unit": "%"},
      {"measurement": "grade 3 study drug-related AEs, patients", "setting": "[4]; human, in vivo", "result": 28},
      {"measurement": "grade 4 to 5 AEs", "setting": "[4]; human, in vivo", "result": "no observed grade 4 to 5 AEs"},
      {"measurement": "patients with serious AEs (SAE)", "setting": "[4]; human, in vivo", "result": 8},
      {"measurement": "treatment-related diarrhea, % of patients", "setting": "[4]; human, in vivo", "result": 85.9, "unit": "%"},
      {"measurement": "treatment-related diarrhea, patients", "setting": "[4]; human, in vivo", "result": 61},
      {"measurement": "treatment-related fatigue, % of patients", "setting": "[4]; human, in vivo", "result": 19.7, "unit": "%"},
      {"measurement": "treatment-related fatigue, patients", "setting": "[4]; human, in vivo", "result": 14},
      {"measurement": "treatment-related rash, % of patients", "setting": "[4]; human, in vivo", "result": 16.9, "unit": "%"},
      {"measurement": "treatment-related rash, patients", "setting": "[4]; human, in vivo", "result": 12},
      {"measurement": "patients with DLT (grade 3 diarrhea)", "setting": "[4]; human, in vivo, 21 days", "result": 5},
      {"measurement": "recommended phase II dose (RP2D)", "setting": "[4]; human, in vivo, po, 21 days", "result": 1000, "unit": "mg"},
      {"measurement": "decline in LVEF", "setting": "[4]; in vivo", "result": "no significant decline in LVEF"},
      {"measurement": "patients with dose reductions (all due to diarrhea)", "setting": "[4]; in vivo", "result": "Seven"},
      {"measurement": "patients with study drug-related AEs", "setting": "[4]; in vivo", "result": "Sixty-eight"}
    ]}
  ]
}
